Converted amounts (≈) assume the structure as drawn.
Columns and labels:
[1] = biological target: Matrix metalloproteinase-14 (Homo sapiens, UniProt P50281); test: Inhibition of human recombinant MMP14 after 60 mins by fluorimetry
[2] = biological target: 72 kDa type IV collagenase (Homo sapiens, UniProt P08253); test: Inhibition of human recombinant MMP2 after 30 mins by fluorimetry
Collagenase 3 [3] = biological target: T1, Collagenase 3 (Homo sapiens, UniProt P45452)
Description: Inhibition of human MMP13 expressed in Escherichia coli after 30 mins by fluorimetry

Collagenase 3 [4] = biological target: T1, Collagenase 3; test: Inhibition of MMP13 after 30 mins by fluorimetry in the presence of 1.25% human serum albumin
Liver microsomes = test: Drug metabolism in Sprague-Dawley rat liver microsomes assessed as ester hydrolysis product formation; assay type: ADME, Microsome
[5] = Metabolic stability in human liver microsomes after 5 mins relative to human hepatic blood flow; assay type: ADME, Microsome; details: read-out: Stability
Interstitial collagenase = biological target: T2, Interstitial collagenase (Homo sapiens, UniProt P03956); test: Inhibition of human recombinant MMP1 after 30 mins by fluorimetry
T2 sequence (P03956 whole entry): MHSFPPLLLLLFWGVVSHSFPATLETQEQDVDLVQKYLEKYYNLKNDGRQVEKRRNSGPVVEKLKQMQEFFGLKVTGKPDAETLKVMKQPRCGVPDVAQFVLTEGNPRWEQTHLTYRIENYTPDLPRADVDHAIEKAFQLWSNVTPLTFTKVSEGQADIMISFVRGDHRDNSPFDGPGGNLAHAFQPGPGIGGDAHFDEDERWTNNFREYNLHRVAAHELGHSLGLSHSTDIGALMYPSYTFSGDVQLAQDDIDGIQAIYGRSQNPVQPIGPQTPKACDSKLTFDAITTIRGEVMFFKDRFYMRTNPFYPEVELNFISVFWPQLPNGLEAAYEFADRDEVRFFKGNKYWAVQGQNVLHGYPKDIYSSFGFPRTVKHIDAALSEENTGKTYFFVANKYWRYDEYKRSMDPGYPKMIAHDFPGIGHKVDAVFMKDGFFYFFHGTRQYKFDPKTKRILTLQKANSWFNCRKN

[6] = Cmax in Sprague-Dawley rat at 1 mg/kg, iv and 10 mg/kg, po; assay type: ADME, organism-based; details: in vivo
Collagenase 3 [7] = biological target: T1, Collagenase 3; test: Inhibition of human MMP13-mediated degradation of bovine nasal cartilage after 2 hrs by ELISA in the presence of 10% human serum
[8] = Clearance in Sprague-Dawley rat at 1 mg/kg, iv and 10 mg/kg, po; assay type: ADME, organism-based; details: in vivo
Stromelysin-2 = Stromelysin-2 (Homo sapiens, UniProt P09238); test: Inhibition of human recombinant MMP10 after 30 mins by fluorimetry
Collagenase 3 [9] = biological target: T1, Collagenase 3; test: Inhibition of […]-activated MMP13-mediated degradation of FITC-labeled type2 collagen after 1.5 hrs by fluorimetry
Matrilysin = biological target: T3, Matrilysin (Homo sapiens, UniProt P09237); test: Inhibition of human recombinant MMP7 after 30 mins by fluorimetry
T3 sequence (P09237 whole entry): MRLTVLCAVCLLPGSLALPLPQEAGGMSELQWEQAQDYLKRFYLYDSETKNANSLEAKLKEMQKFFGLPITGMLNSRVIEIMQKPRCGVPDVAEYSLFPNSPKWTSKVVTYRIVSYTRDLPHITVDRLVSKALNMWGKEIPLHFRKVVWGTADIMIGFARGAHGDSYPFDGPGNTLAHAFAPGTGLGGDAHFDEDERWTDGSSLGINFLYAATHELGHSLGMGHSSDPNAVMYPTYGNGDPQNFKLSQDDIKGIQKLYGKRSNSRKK

[10] = biological target: Matrix metalloproteinase-9 (Homo sapiens, UniProt P14780); test: Inhibition of human recombinant MMP9 after 30 mins by fluorimetry
[11] = Lipophilicity, log P of the compound; assay type: physicochemical; details: octanol/water
Rattus norvegicus [12] = test: AUC in Sprague-Dawley rat at 1 mg/kg, iv; assay type: ADME, organism-based, Plasma; set-up: dose 1 mg/kg, route intravenous; details: in vivo
[13] = biological target: Macrophage metalloelastase (Homo sapiens, UniProt P39900); test: Inhibition of human recombinant MMP12 after 30 mins by fluorimetry
[14] = Aqueous solubility of the compound at pH 7.4 by UV spectrophotometry; assay type: physicochemical; details: buffer
Rattus norvegicus [15] = test: AUC in Sprague-Dawley rat at 10 mg/kg, po; assay type: ADME, organism-based, Plasma; set-up: dose 10 mg/kg, route oral; details: in vivo
Stromelysin-1 = Stromelysin-1 (Homo sapiens, UniProt P08254); test: Inhibition of human recombinant MMP3 after 30 mins by fluorimetry
Neutrophil collagenase = Neutrophil collagenase (Homo sapiens, UniProt P22894); test: Inhibition of human recombinant MMP8 after 30 mins by fluorimetry
[16] = Half life in Sprague-Dawley rat at 1 mg/kg, iv and 10 mg/kg, po; assay type: ADME, organism-based; details: in vivo
Cytochrome P450 2C9 = Cytochrome P450 2C9 (Homo sapiens, UniProt P11712); test: Inhibition of human recombinant CYP2C9 using 7-methoxy-4-trifluoromethylcoumarin as substrate after 45 mins by fluorimetry; assay type: ADME
Cytochrome P450 3A4 = Cytochrome P450 3A4 (Homo sapiens, UniProt P08684); test: Inhibition of human recombinant CYP3A4 using 7-benzyloxy-4-trifluoromethylcoumarin as substrate after 30 mins by fluorimetry; assay type: ADME
Rattus norvegicus [17] = test: Volume of distribution at steady state in Sprague-Dawley rat at 1 mg/kg, iv and 10 mg/kg, po; assay type: ADME, organism-based; details: in vivo
[18] = Oral bioavailability in Sprague-Dawley rat at 10 mg/kg; assay type: ADME, organism-based; details: in vivo

Chain of 72 kDa type IV collagenase (P08253 whole entry): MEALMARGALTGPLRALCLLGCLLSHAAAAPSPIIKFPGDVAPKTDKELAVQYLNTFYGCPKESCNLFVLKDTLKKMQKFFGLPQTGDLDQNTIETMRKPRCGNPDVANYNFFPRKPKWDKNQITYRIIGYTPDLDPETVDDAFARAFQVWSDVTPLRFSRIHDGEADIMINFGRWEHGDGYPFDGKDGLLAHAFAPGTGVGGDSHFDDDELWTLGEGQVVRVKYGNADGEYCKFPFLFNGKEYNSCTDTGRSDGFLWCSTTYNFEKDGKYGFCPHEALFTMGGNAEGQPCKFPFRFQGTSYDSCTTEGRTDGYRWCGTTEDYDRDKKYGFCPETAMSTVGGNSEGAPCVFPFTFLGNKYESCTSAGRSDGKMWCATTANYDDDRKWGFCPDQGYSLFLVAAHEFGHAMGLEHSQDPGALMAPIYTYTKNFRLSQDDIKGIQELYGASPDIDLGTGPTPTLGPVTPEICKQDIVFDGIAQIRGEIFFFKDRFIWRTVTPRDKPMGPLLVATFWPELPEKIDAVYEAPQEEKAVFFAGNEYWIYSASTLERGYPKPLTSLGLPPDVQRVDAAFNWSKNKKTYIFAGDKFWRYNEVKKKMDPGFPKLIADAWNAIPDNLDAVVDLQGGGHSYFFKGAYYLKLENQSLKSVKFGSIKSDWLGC
Chain of Cytochrome P450 3A4 (P08684 whole entry): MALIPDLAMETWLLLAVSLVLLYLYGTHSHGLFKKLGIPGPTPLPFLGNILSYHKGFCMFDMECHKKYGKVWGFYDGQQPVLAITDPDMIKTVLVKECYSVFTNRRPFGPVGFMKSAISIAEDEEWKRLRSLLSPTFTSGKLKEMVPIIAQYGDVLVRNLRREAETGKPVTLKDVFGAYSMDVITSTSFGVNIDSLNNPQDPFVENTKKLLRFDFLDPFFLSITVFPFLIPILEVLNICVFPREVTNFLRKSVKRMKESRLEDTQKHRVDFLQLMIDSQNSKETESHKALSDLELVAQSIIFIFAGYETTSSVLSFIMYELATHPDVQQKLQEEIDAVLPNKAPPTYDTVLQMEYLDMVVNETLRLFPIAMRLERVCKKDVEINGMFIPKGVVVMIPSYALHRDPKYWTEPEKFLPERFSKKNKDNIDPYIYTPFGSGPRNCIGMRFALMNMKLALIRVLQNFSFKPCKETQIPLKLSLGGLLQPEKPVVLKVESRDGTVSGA
Chain of Macrophage metalloelastase (P39900 whole entry): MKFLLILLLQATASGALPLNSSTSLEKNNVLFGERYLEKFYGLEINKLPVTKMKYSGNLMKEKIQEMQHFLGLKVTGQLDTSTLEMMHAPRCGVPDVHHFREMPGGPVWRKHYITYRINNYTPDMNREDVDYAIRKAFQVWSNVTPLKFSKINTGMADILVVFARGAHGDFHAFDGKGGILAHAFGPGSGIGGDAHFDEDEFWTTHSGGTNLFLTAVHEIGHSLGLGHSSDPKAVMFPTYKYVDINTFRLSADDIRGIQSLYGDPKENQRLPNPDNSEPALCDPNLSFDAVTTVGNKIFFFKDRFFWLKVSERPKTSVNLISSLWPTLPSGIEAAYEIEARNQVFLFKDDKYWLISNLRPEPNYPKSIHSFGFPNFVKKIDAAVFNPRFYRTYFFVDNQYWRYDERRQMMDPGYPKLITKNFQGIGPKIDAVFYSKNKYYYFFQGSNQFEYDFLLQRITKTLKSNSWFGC
Chain of Stromelysin-1 (P08254 whole entry): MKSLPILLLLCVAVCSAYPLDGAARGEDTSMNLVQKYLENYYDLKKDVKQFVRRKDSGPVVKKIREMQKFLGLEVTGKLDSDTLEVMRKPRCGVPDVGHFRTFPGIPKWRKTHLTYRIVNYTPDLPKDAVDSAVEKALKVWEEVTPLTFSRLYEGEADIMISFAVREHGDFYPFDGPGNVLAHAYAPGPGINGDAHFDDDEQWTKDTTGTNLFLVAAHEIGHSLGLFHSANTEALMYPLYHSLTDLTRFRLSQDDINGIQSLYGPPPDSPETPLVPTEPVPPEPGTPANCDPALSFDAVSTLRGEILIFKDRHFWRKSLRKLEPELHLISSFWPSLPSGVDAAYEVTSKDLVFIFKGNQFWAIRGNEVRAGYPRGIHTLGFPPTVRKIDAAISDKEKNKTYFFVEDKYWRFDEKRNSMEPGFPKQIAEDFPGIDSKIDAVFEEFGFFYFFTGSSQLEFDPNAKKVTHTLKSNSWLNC
Chain of Cytochrome P450 2C9 (P11712 whole entry): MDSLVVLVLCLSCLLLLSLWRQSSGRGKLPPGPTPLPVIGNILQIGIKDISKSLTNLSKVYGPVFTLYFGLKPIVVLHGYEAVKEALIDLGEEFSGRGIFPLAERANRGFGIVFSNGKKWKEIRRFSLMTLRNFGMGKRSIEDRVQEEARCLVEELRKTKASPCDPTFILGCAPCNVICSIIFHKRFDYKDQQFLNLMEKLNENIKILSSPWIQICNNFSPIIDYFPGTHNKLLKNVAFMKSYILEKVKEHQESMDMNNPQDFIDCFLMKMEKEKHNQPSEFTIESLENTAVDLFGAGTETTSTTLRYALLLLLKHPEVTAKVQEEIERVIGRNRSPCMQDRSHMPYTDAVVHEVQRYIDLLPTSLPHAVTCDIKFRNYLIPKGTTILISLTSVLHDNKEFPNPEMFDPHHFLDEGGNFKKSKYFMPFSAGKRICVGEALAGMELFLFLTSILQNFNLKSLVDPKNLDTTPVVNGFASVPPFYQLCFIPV
Chain of Matrix metalloproteinase-9 (P14780 whole entry): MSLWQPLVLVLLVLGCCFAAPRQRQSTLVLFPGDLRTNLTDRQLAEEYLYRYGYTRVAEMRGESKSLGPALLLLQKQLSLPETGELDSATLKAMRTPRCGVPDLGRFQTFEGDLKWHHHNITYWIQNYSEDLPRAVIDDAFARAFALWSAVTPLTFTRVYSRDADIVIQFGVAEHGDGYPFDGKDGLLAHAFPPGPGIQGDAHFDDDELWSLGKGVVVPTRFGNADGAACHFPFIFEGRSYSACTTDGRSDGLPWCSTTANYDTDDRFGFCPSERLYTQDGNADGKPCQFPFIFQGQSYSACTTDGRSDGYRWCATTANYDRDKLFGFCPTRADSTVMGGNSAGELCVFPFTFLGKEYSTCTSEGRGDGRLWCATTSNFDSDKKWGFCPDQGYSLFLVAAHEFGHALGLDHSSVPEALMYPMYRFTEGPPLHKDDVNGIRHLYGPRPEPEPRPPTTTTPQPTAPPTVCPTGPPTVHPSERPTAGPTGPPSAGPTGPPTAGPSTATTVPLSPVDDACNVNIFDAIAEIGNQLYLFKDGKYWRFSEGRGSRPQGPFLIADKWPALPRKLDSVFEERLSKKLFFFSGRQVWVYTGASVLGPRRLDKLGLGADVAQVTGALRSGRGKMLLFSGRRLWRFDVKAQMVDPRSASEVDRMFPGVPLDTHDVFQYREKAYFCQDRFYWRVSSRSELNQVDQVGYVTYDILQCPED
Chain of Neutrophil collagenase (P22894 whole entry): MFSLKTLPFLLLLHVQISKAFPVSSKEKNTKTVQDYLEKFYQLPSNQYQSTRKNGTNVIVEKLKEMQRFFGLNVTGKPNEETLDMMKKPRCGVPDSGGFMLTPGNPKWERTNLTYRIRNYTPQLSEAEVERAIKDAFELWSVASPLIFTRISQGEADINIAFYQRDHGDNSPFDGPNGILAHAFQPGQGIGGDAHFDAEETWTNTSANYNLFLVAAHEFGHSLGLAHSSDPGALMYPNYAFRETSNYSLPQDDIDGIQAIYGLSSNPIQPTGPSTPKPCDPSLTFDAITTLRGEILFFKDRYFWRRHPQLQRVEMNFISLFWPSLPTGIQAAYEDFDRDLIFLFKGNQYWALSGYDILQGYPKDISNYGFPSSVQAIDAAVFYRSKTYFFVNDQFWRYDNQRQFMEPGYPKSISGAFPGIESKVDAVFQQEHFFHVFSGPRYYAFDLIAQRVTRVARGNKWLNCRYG
Chain of Stromelysin-2 (P09238 whole entry): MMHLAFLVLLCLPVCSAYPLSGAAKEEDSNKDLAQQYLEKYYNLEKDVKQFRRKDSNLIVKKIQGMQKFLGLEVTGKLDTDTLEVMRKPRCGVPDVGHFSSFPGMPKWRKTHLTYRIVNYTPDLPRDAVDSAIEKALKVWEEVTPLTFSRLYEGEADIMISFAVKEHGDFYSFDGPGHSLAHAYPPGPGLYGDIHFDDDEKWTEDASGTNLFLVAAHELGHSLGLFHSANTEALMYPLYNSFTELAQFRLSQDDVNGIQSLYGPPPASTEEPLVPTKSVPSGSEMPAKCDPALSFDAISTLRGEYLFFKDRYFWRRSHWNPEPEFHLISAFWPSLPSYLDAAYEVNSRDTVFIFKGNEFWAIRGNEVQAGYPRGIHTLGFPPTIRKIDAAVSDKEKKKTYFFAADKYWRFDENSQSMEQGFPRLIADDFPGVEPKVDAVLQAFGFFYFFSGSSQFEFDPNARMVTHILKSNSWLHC

| SMILES | IC50 [1] [µM] | IC50 [2] [µM] | IC50 (Collagenase 3 [3]) [µM] | IC50 (Collagenase 3 [4]) [µM] | further results |
| --- | --- | --- | --- | --- | --- |
| CCOC(=O)c1cc2cc(NS(C)(=O)=O)ccc2[nH]1 | > 500 | 210 | 97 | – | – |
| CCOC(=O)c1cc2cc(C(N)=O)ccc2[nH]1 | > 500 | 60 | – | – | – |
| CCCC(=O)c1cc2cc(C(N)=O)ccc2[nH]1 | > 500 | > 500 | > 500 | – | – |
| CCNC(=O)c1cc2cc(C(N)=O)ccc2[nH]1 | > 500 | > 500 | > 500 | – | – |
| CCOC(=O)c1cc2cc(NC(C)=O)ccc2[nH]1 | > 500 | > 500 | 31 | – | – |
| CC(=O)Nc1ccc2[nH]c(C3=NCCO3)cc2c1 | > 500 | > 500 | 220 | – | – |
| CCOC(=O)c1cc2cc(-c3ccccc3)ccc2[nH]1 | > 500 | > 500 | > 500 | – | – |
| CCOC(=O)c1cc2cc(-c3ccccn3)ccc2[nH]1 | > 500 | > 500 | > 500 | – | – |
| CCOC(=O)c1cc2cc(-c3cccnc3)ccc2[nH]1 | 51 | 30 | 15 | – | – |
| CCOC(=O)c1cc2cc(-c3ccncc3)ccc2[nH]1 | 225 | 310 | 82 | – | – |
| CCOC(=O)c1cc2cc(-c3ccncc3C)ccc2[nH]1 | > 500 | > 500 | 9.6 | – | – |
| CCOC(=O)c1cc2cc(-c3cncn3C)ccc2[nH]1 | 15 | 24 | 2.5 | – | – |
| CCOC(=O)c1cc2cc(-c3cc(C(=O)OC)nn3C)ccc2[nH]1 | 41 | 83 | 2.4 | – | – |
| CCOC(=O)c1cc2cc(-c3cc(C(=O)NCc4ccncc4)nn3C)ccc2[nH]1 | > 500 | > 500 | 0.09 | 0.36 | – |
| CCOC(=O)c1cc2cc(-c3cc(C(=O)NCc4ccc(=O)[nH]c4)nn3C)ccc2[nH]1 | 11 | > 24 | 0.12 | 0.28 | – |
| CCOC(=O)c1cc2cc(-c3cc(C(=O)NCc4ccc(CC(=O)O)cc4)nn3C)ccc2[nH]1 | > 22 | > 22 | – | 0.014 | – |
| CCOC(=O)c1cc2cc(-c3cc(C(=O)NCc4ccncc4)ncc3C)ccc2[nH]1 | > 22 | > 20 | 0.15 | 0.64 | – |
| Cn1nc(C(=O)NCc2ccc(C(=O)O)cc2)cc1-c1ccc2[nH]c(C(=O)O)cc2c1 | – | – | 25 | 56 | Drug metabolism (Liver microsomes): Active |
| CCOCc1cc2cc(-c3cc(C(=O)NCc4ccc(C(=O)O)cc4)nn3C)ccc2[nH]1 | – | – | 0.25 | 1.9 | hepatic extraction ratio at 5 min [5]: 0.78 |
| CCOC(=O)c1cc2cc(-c3cc(C(=O)NCc4ccc(C(=O)O)cc4)nn3C)ccc2[nH]1 [BI 4394] | – | – | 0.001 | 0.004 | IC50 (Interstitial collagenase): > 22 µM; Cmax [6]: 1660 nM; IC50 (Collagenase 3 [7]): 0.031 µM; clearance [8]: 34 mL/min/kg; IC50 (Stromelysin-2): 16 µM; IC50 (Collagenase 3 [9]): 0.011 µM; IC50 (Matrilysin): > 22 µM; IC50 [10]: 8.9 µM; logP [11]: 1.9; AUC (Rattus norvegicus [12]): 1109 nM.hr/ml; IC50 [13]: > 22 µM; solubility [14]: 60 µg/mL (≈ 134 µM); AUC (Rattus norvegicus [15]): 4328 nM.hr/ml; IC50 (Stromelysin-1): > 22 µM; IC50 (Neutrophil collagenase): > 22 µM; half-life [16]: 28.2 min; IC50 (Cytochrome P450 2C9): > 30 µM; IC50 (Cytochrome P450 3A4): > 30 µM; Vdss (Rattus norvegicus [17]): 0.26 L/kg; bioavailability [18]: 39% |
| Cn1nc(C(=O)NCc2ccc(C(=O)O)cc2)cc1-c1ccc2[nH]ccc2c1 [BI 4395] | – | – | > 26 | – | hepatic extraction ratio at 5 min [5]: 0.25 |
